Data reported in patent US3948928A, “3-Substituted-1,2-benzisoxazoles and pharmaceutically acceptable acid addition salts thereof” (Dainippon Pharmaceutical Co., Ltd., priority 1972, dated 1976).
Counter-ions that a name gives are not always drawn.

Key:
[1] = tested on: spontaneously hypertensive rats; test: Anti-hypertensive activity in spontaneously hypertensive rats; assay type: in vivo, male Wistar rats
Description: The blood pressure was measured by plethysmographic method, in which the blood pressure was measured indirectly by using a tail of animal without anesthesia. That is, after being warmed at 38°C for 10 minutes, a tail of rat was pressed by cuff and then the pressure was relieved and thereby the blood flow started again to increase the volume of tail. The blood pressure at that time was measured.
Spontaneously hypertensive rats were prepared by using male Wistar rats weighing 300 to 350 g and being 20 or more weeks of age. […] The blood pressure in rats was measured at 0.5, 1, 3, 5, 7, 24 and 30 hours after the administration of the test compounds in the same manner as described in Test 3, (B).

[2] = tested on: hypothermy induced by reserpine; test: Anti-reserpine activity: antagonism against the hypothermy induced by reserpine; assay type: in vivo, male dd YS-mice; conditions: 100 mg/kg orally; for Inhibition (%): reserpine 5 mg/kg i.p. simultaneously, rectal temperature at 4 hours; for Ratio to AMT: inhibition relative to amitriptyline (AMT)
Description: The anti-reserpine activity of the test compounds was studied by the antagonism against the hypothermy induced by reserpine on male dd YS-mice, weighing 18 to 20 g, each group being 5 mice. The test compounds were orally administered in a dose of 100 mg/kg and simultaneously reserpine was intraperitoneally administered in a dose of 5 mg/kg to the mice. The body temperature was measured on the rectal temperature of the mice at 4 hours after the administration of the test compounds by thermister BMG III-130, made by Shibaura Electric Co., Ltd.

[3] = tested on: 1-dopa potentiating activity; test: 1-Dopa potentiating activity (mortality of mice given 1-dopa); assay type: in vivo, dd YS-mice; conditions: one hour before 1-dopa 300 mg/kg i.p.
Description: To dd YS-mice, weighing 18 to 20 g (each group being 10 mice) was intraperitoneally administered 300 mg/kg of 1-dopa: 3-(3,4-dihydroxyphenyl)-L-alanine. The mice were entered into a plastic cage having 15 × 15 cm^2 in size and allowed to live gregariously and then the symptom of the mice was observed. The test compounds were orally administered to the mice at one hour before the administration of 1-dopa. The activity of the test compounds was calculated by the mortality.

renal hypertensive rats = test: Anti-hypertensive activity in renal hypertensive rats (plethysmographic tail blood pressure); assay type: in vivo, male Wistar rats
Description: Male Wistar rats weighing 180 to 200 g and having a blood pressure of 125 to 145 mmHg were anesthetized with ether and the left abdominal wall of rats was cut and thereby the renal artery was laid bare. The origin part of the aorta was stripped off and to the renal artery was fixed a silver clip which was made by two-folding at interval of 0.2 mm a silver thin board having 2.0 mm in width, 6.0 mm in length and 0.3 mm in thickness, and then the abdominal wall was stitched. At 2 months after the operation, the blood pressure of the rats was increased to 150 or more mmHg. The rats thus treated were used in the test as the renal hypertensive rats.
The blood pressure was measured before the administration of test compounds and at 0.5, 1, 3, 5, 7, 9 and 24 hours after the administration of the test compounds.

Compound | Inhibition (%) [2] [%] | Ratio to AMT [2] | Blood pressure Decrease percent (renal hypertensive rats; 100 mg/kg p.o.) [%] | Blood pressure Duration (renal hypertensive rats; 100 mg/kg p.o.) [h] | Blood pressure Peak time (renal hypertensive rats; 100 mg/kg p.o.) [h] | further results
1,2-Benzisoxazole-3-acetamidoxime [Example 1] | 66.9 | 1.37 |  |  |  | Blood pressure Decrease percent ([1]; 10 mg/kg p.o.): 16%; Blood pressure Duration ([1]; 10 mg/kg p.o.): 24 h; Blood pressure Peak time ([1]; 10 mg/kg p.o.): 5.0 h; Number of dead mice/number of used mice ([3]; dose 20 mg/kg orally): 1/10; Number of dead mice/number of used mice ([3]; dose 50 mg/kg orally): 3/10; Number of dead mice/number of used mice ([3]; dose 100 mg/kg orally): 7/10; Blood pressure Decrease percent (renal hypertensive rats; 3 mg/kg p.o.): 18.2%; Blood pressure Duration (renal hypertensive rats; 3 mg/kg p.o.): 24 h; Blood pressure Peak time (renal hypertensive rats; 3 mg/kg p.o.): 7 h; Blood pressure Decrease percent (renal hypertensive rats; 10 mg/kg p.o.): 36.3%; Blood pressure Duration (renal hypertensive rats; 10 mg/kg p.o.): 30 h; Blood pressure Peak time (renal hypertensive rats; 10 mg/kg p.o.): 7 h; Blood pressure Decrease percent (renal hypertensive rats; 30 mg/kg p.o.): 38.8%; Blood pressure Duration (renal hypertensive rats; 30 mg/kg p.o.): 48 h; Blood pressure Peak time (renal hypertensive rats; 30 mg/kg p.o.): 3 h
6,7-dimethoxy-1,2-benzisoxazole-3-acetamidoxime hydrochloride [Example 7] |  |  | 21.0 | 72 | 5 | 
NC12CC3CC(CC(C3)C1)C2 [Amantadine, 1-aminoadamantane, reference compound] |  |  |  |  |  | Number of dead mice/number of used mice ([3]; dose 100 mg/kg orally): 0/10; Number of dead mice/number of used mice ([3]; dose 200 mg/kg orally): 3/10; Number of dead mice/number of used mice ([3]; dose 300 mg/kg orally): 5/10
CN(C)CCC=C1c2ccccc2CCc2ccccc21 [Amitriptyline, 3-(10,11-Dihydro-5H-dibenzo[a,d]-cyclohepten-5-ylidene)-N,N-dimethylpropylamine, reference compound] | 48.9 |  |  |  |  | 
Cl.NC(Cc1noc2ccccc12)=NO [Test compound 2 (Table 1), 1,2-Benzisoxazole-3-acetamidoxime hydrochloride] | 64.9 | 1.33 |  |  |  | 
Cl.N=C(N)Cc1noc2ccccc12 [Test compound 2 (Table 3), 1,2-Benzisoxazole-3-acetamidine hydrochloride] |  |  | 34.4 | 30 | 1 to 3 | 
NC(Cc1noc2ccccc12)=NOC(=O)c1ccccc1 [Test compound 3 (Table 1), O-Benzoyl-1,2-benzisoxazole-3-acetamidoxime] | 57.1 | 1.17 |  |  |  | 
Cl.N=C(Cc1noc2ccccc12)NN [Test compound 3 (Table 3), 1,2-Benzisoxazole-3-acetamidrazone hydrochloride] |  |  | 19.0 | 24 | 7 | 
Cl.NC(Cc1noc2ccc(F)cc12)=NO [Test compound 3 (Table 4), 5-Fluoro-1,2-benzisoxazole-3-acetamidoxime hydrochloride] |  |  |  |  |  | Blood pressure Decrease percent ([1]; 1 mg/kg p.o.): 20%; Blood pressure Duration ([1]; 1 mg/kg p.o.): 24 h; Blood pressure Peak time ([1]; 1 mg/kg p.o.): 7 to 8 h; Blood pressure Decrease percent ([1]; 10 mg/kg p.o.): 22%; Blood pressure Duration ([1]; 10 mg/kg p.o.): 24 h; Blood pressure Peak time ([1]; 10 mg/kg p.o.): 7.0 h
Cc1cccc2c(CC3=NCCN3)noc12.Cl [Test compound 4 (Table 1), 7-Methyl-3-(2-imidazolin-2-yl)methyl-1,2-benzisoxazole hydrochloride] | 51.9 | 1.06 |  |  |  | 
N=C(Cc1noc2ccccc12)N1CCN(c2ccccc2)CC1 [Test compound 4 (Table 3), 1-Phenyl-4-(1,2-benzisoxazole-3-acetimidoyl)piperazine hydrochloride] |  |  | 10.7 | 30 | 3 | 
Cl.Fc1ccc2onc(CC3=NCCN3)c2c1 [Test compound 4 (Table 4), 5-Fluoro-3-(2-imidazolin-2-yl)methyl-1,2-benzisoxazole hydrochloride] |  |  |  |  |  | Blood pressure Decrease percent ([1]; 10 mg/kg p.o.): 28%; Blood pressure Duration ([1]; 10 mg/kg p.o.): 30 h; Blood pressure Peak time ([1]; 10 mg/kg p.o.): 7.0 h
COc1ccc2c(CC(N)=NO)noc2c1.Cl [Test compound 5 (Table 1), 6-Methoxy-1,2-benzisoxazole-3-acetamidoxime hydrochloride] | 69.2 | 1.42 |  |  |  | 
CNC(=N)Cc1noc2ccccc12 [Test compound 5 (Table 3), 1,2-Benzisoxazole-3-(N-methyl)acetamidine hydrochloride] |  |  | 19.3 | 24 | 3 | 
Cl.NC(CCc1noc2ccccc12)=NO [Test compound 6 (Table 1), 1,2-Benzisoxazole-3-propionamidoxime hydrochloride] | 58.1 | 1.12 |  |  |  | 
Cl.Oc1ccc2onc(CC3=NCCN3)c2c1 [Test compound 6 (Table 3), 5-Hydroxy-3-(2-imidazolin-2-yl)methyl-1,2-benzisoxazole hydrochloride] |  |  | 56.5 | 30 | 5 | 
Cl.Oc1ccc2c(CC3=NCCN3)noc2c1 [Test compound 7 (Table 3), 6-Hydroxy-3-(2-imidazolin-2-yl)methyl-1,2-benzisoxazole hydrochloride] |  |  |  |  |  | Blood pressure Decrease percent ([1]; 10 mg/kg p.o.): 14%; Blood pressure Duration ([1]; 10 mg/kg p.o.): 9 h; Blood pressure Peak time ([1]; 10 mg/kg p.o.): 7.0 h
